Data reported in patent publication US20230265151A1, “GIP/GLP1 CO-AGONIST COMPOUNDS” (priority 2020, published 2023).
Read-outs that look alike come from different tables or passages of the source. *1 amine or outer side, *2 acyl side, *3 side chain or, on linkers, in order; H or OH if unused. Where a SMILES comes first, the peptide text is derived from it. Side-chain parts run from the residue outwards. [ ]: non-standard residue; d: D form. The star is where a group is joined. αMePhe(2-F) = C[C@](N)(Cc1ccccc1F)C(=O)O; γGlu = O=C(O)[C@H](CCC(=O)[*:2])N[*:1]; C14 diacid = O=C(O)CCCCCCCCCCCCC(=O)*; αMeY = C[C@](N)(Cc1ccc(O)cc1)C(=O)O; 4Pal = N[C@@H](Cc1ccncc1)C(=O)O; αMeL = CC(C)C[C@](C)(N)C(=O)O; Orn = NCCC[C@H](N)C(=O)O; AEEA = NCCOCCOCC(=O)O; Aib = CC(C)(N)C(=O)O

Tests used:
[1] = biological target: T1, hGIPR (Homo sapiens, UniProt P48546); assay: Functional cAMP formation (HTRF) in HEK-293 clonal cells expressing hGIPR, 0.1% bovine casein, without or with 1.0% human serum albumin; assay type: cell-based; conditions: 37° C.; for Emax: read-out: hGIPR Emax, % ± SEM
T1 construct: expressed in transfected cells
T1 sequence (P48546 22-466): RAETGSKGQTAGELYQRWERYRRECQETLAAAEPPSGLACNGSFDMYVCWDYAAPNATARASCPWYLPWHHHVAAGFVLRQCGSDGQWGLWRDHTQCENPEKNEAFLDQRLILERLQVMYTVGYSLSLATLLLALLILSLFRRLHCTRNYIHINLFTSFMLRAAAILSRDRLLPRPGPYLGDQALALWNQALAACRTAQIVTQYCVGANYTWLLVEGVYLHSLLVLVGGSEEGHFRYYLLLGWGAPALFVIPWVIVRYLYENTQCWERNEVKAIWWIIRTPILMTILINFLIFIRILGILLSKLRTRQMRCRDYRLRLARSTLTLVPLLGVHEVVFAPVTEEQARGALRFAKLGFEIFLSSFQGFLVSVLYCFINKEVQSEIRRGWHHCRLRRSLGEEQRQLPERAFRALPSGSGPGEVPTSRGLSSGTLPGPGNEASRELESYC
Procedure, shortened: (§1)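 Cells were stimulated with peptide for 30 min at 37° C, then intracellular cAMP was measured by competitive HTRF (665/620 nm ratio) and converted to nM using a cAMP standard curve. Relative EC50 and Emax came from four-parameter logistic fits of percent maximal response against peptide concentration.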

[2] = biological target: T2, hGCGR (Homo sapiens, UniProt P47871); assay: Functional cAMP formation (HTRF) in HEK-293 clonal cells expressing hGCGR, 0.1% bovine casein, without or with 1.0% human serum albumin; assay type: cell-based; conditions: read-out: hGCGR EC50, nM (SEM, n)
T2 construct: expressed in transfected cells
T2 sequence (P47871 26-477): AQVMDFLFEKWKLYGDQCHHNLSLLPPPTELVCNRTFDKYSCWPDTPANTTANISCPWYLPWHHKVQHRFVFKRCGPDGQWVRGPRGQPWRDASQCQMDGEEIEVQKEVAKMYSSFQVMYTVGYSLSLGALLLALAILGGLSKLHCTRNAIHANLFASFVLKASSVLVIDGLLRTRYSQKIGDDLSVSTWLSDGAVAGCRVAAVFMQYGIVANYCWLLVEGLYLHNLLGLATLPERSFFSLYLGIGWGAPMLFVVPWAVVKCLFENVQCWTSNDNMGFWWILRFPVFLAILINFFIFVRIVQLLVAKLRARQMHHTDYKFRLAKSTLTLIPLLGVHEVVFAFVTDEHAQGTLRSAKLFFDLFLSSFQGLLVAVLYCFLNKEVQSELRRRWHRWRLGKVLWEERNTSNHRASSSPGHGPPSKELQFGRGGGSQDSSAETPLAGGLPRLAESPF
Procedure, shortened: as §1

[3] = biological target: hGLP-1R (Homo sapiens, UniProt P43220); assay: Functional cAMP formation (HTRF) in HEK-293 clonal cells expressing hGLP-1R, 0.1% bovine casein, without or with 1.0% human serum albumin; assay type: cell-based; design: expressed in transfected cells; conditions: for Emax: read-out: hGLP-1R Emax, % ± SEM; for EC50: cAMP, read-out: hGLP-1R EC50, nM (SEM, n)
Chain of hGLP-1R (P43220 24-463): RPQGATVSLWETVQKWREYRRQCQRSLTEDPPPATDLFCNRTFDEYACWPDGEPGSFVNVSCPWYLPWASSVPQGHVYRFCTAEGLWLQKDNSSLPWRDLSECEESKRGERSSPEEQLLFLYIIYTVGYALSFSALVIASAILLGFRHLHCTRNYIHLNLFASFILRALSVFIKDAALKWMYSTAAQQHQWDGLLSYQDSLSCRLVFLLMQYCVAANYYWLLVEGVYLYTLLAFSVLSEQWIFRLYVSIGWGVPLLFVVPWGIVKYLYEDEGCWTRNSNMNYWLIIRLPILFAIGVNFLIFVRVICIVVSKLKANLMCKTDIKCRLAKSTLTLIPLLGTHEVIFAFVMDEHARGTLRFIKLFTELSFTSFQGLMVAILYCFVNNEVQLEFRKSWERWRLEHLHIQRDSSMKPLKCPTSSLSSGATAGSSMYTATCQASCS
Procedure, shortened: as §1

[4] = biological target: T3, human Gcg receptor (hGcgR) (Homo sapiens, UniProt P47871); assay: [125I]-Glucagon binding, SPA with membranes of HEK293 cells expressing hGcgR; conditions: human GcgR; geometric mean (SEM, n); read-out: Binding Affinity Ki, nM (SEM, n) hGCGR
T3 construct: expressed in transfected cells; crude membranes
T3 sequence (P47871 26-477): as the sequence (P47871 26-477) above
Procedure: Two methods are used for the preparation of crude cell membranes.
Method 1: Frozen cell pellets are lysed on ice in hypotonic buffer containing 50 mM Tris HCl, pH 7.5, and Roche Complete™ Protease Inhibitors with EDTA. […] The homogenate is centrifuged at 4° C. at 1100 × g for 10 minutes. The supernatant is collected and stored on ice while the pellets are resuspended in homogenization buffer and rehomogenized as described above. The homogenate is centrifuged at 1100 × g for 10 minutes. The second supernatant is combined with the first supernatant and centrifuged at 35000 × g for 1 hour at 4° C. The resulting membrane pellet is resuspended in homogenization buffer containing protease inhibitors at approximately 1 to 3 mg/mL, quick frozen in liquid nitrogen and stored as aliquots in a -80° C. freezer until use.
The homogenate is centrifuged at 4° C. at 1800 × g for 15 minutes. The supernatant is collected and stored on ice while the pellets are resuspended in homogenization buffer (without DNAse I) and rehomogenized as described above. The homogenate is centrifuged at 1800 × g for 15 minutes. The second supernatant is combined with the first supernatant and centrifuged an additional time at 1800 × g for 15 minutes. The overall supernatant is then centrifuged at 25000 × g for 30 minutes at 4° C. The resulting membrane pellet is resuspended in homogenization buffer (without DNAse I) containing protease inhibitors at approximately 1 to 3 mg/mL and stored as aliquots in a -80° C. freezer until use.
The human Gcg receptor binding assays are performed using a Scintillation Proximity Assay (SPA) format with wheat germ agglutinin (WGA) beads (Perkin Elmer). The binding buffer contains 25 mM 4-(2-hydroxyethyl)-1-piperazineethanesulfonic acid (HEPES), pH 7.4, 2.5 mM CaCl2, 1 mM MgCh, 0.1% (w/v) bacitracin (Research Products), 0.003% (w/v) Polyoxyethylenesorbitan monolaurate (TWEEN®-20), and Roche Complete™ Protease Inhibitors without EDTA. […] Next, 5 µL serially diluted compound or DMSO is transferred into Corning® 3632 clear bottom assay plates containing 45 µL assay binding buffer or unlabeled Gcg control (non-specific binding or NSB, at 1 µM final). […] Plates are sealed and mixed on a plate shaker (setting 6) for 1 minute and read with a PerkinElmer Trilux MicroBeta® scintillation counter after 12 hours of incubation/settling time at room temperature.
Raw CPM data for concentration curves of peptides, Gcg, GLP-1, or GIP are converted to percent inhibition by subtracting nonspecific binding (binding in the presence of excess unlabeled Gcg, GLP-1, or GIP, respectively) from the individual CPM values and dividing by the total binding signal, also corrected by subtracting nonspecific binding. Data are analyzed using four-parameter (curve maximum, curve minimum, IC50, Hill slope) nonlinear regression routines (Genedata Screener, version 12.0.4, Genedata AG, Basal, Switzerland). […] Values for Ki are reported as the geometric mean, with error expressed as the standard error of the mean (SEM) and n is equal to the number of independent replicates (determined in assays performed on different days). Geometric Means are calculated as follows: […]
The Ki Ratio (Ki for native control peptide/Ki for test compound) at each receptor and each species is calculated. The Ki Ratio is a rapid indication of the apparent affinity of a peptide compared to the native control peptide.
n=⅟x means that only one value out of the total number of replicates (x) is used to express the mean. SEM is only calculated when n=2 or greater non-qualified results exist. Means are expressed as GeoMetric means with the standard error of the mean (SEM) and the number of replicates (n) indicated in parenthesis.

Compound	Emax ([1]; HEK293, cAMP, 0.1% bovine casein and 1.0% human serum albumin, percent of maximal response to GIP(1-42)NH2)	EC50 ([1]; cAMP, 0.1% bovine casein (no human serum albumin), geometric mean, read-out: hGIPR EC50, nM (SEM, n))	EC50 ([2]; cAMP, 37° C., 0.1% bovine casein (no human serum albumin), geometric mean)	EC50 ([2]; cAMP, 37° C., 0.1% bovine casein and 1.0% human serum albumin, geometric mean (SEM, n))	Emax ([3]; HEK293, cAMP, 37° C., 0.1% bovine casein and 1.0% human serum albumin, percent of maximal response to GLP-1(7-36)NH2)	Emax ([3]; HEK293, cAMP, 37° C., 0.1% bovine casein, percent of maximal response to GLP-1(7-36)NH2, arithmetic mean)	EC50 ([3]; 37° C., 0.1% bovine casein (no human serum albumin), geometric mean)	EC50 ([3]; 37° C., 0.1% bovine casein and 1.0% human serum albumin, geometric mean (SEM, n))	Ki [4]	Emax ([1]; HEK293, 0.1% bovine casein and 1.0% human serum albumin, percent of maximal response to GIP(1-42)NH2)	Emax ([1]; HEK293, percent of maximal response to GIP(1-42)NH2, 0.1% bovine casein, arithmetic mean)	EC50 ([2]; 0.1% bovine casein and 1.0% human serum albumin, 37° C., geometric mean)	EC50 ([2]; cAMP, incubated at 37° C., 0.1% bovine casein (no human serum albumin), geometric mean)	Emax ([3]; HEK293, 0.1% bovine casein and 1.0% human serum albumin, 37° C., percent of maximal response to GLP-1(7-36)NH2)	Emax ([3]; HEK293, percent of maximal response to GLP-1(7-36)NH2, 37° C., 0.1% bovine casein, arithmetic mean)	EC50 ([3]; incubated at 37° C., 0.1% bovine casein (no human serum albumin), geometric mean)
CC[C@H](C)[C@H](NC(=O)[C@H](CC(C)C)NC(=O)[C@](C)(Cc1ccc(O)cc1)NC(=O)[C@@H](CCC(=O)O)NC(=O)[C@@H](NC(=O)[C@H](Cc1ccccc1)NC(=O)[C@H](CCCCNC(=O)COCCOCCNC(=O)COCCOCCNC(=O)CC[C@H](NC(=O)CCCCCCCCCCCCC(=O)O)C(=O)O)NC(=O)C(C)(C)NC(=O)[C@H](CCC(N)=O)NC(=O)[C@H](C)NC(=O)[C@H](CCC(N)=O)NC(=O)[C@H](CCCN)NC(=O)[C@H](CC(=O)O)NC(=O)[C@H](CC(C)C)NC(=O)[C@](C)(CC(C)C)NC(=O)[C@@H](NC(=O)C(C)(C)NC(=O)[C@H](Cc1ccncc1)NC(=O)[C@H](CC(=O)O)NC(=O)[C@H](CO)NC(=O)[C@@H](NC(=O)[C@](C)(Cc1ccccc1F)NC(=O)[C@@H](NC(=O)CNC(=O)[C@H](CCC(=O)O)NC(=O)C(C)(C)NC(=O)[C@@H](N)Cc1ccc(O)cc1)[C@@H](C)O)[C@@H](C)O)[C@@H](C)CC)[C@@H](C)CC)C(=O)N[C@@H](CCC(=O)O)C(=O)NCC(=O)NCC(=O)N1CCC[C@H]1C(=O)N[C@@H](CO)C(=O)N[C@@H](CO)C(=O)NCC(=O)N[C@@H](C)C(=O)N1CCC[C@H]1C(=O)N1CCC[C@H]1C(=O)N1CCC[C@H]1C(=O)N[C@@H](CO)C(=O)N[C@@H](CCCCNC(=O)COCCOCCNC(=O)COCCOCCNC(=O)CC[C@H](NC(=O)CCCCCCCCCCCCC(=O)O)C(=O)O)C(N)=O [Example 489] (H-Y[Aib]EGT[αMePhe(2-F)]TSD[4Pal][Aib]I[αMeL]LD[Orn]QAQ[Aib]K([AEEA-AEEA-γGlu-C14 diacid])FI[dE][αMeY]LIEGGPSSGAPPPSK([AEEA-AEEA-γGlu-C14 diacid])-NH2)	79.4%	0.0131 nM	> 10100 nM	> 9950 nM	98.7%	112%	0.257 nM	13.5 nM	> 957 nM							
CC[C@H](C)[C@H](NC(=O)[C@H](CC(C)C)NC(=O)[C@](C)(Cc1ccc(O)cc1)NC(=O)[C@@H](CCC(=O)O)NC(=O)[C@@H](NC(=O)[C@H](Cc1ccccc1)NC(=O)[C@H](CCC(=O)O)NC(=O)C(C)(C)NC(=O)[C@H](CCC(N)=O)NC(=O)[C@H](C)NC(=O)[C@H](CCCCNC(=O)COCCOCCNC(=O)COCCOCCNC(=O)CC[C@H](NC(=O)CCCCCCCCCCCCC(=O)O)C(=O)O)NC(=O)[C@H](CCCN)NC(=O)[C@H](CC(=O)O)NC(=O)[C@H](CC(C)C)NC(=O)[C@](C)(CC(C)C)NC(=O)[C@@H](NC(=O)[C@H](CO)NC(=O)[C@](C)(Cc1ccccc1)NC(=O)[C@H](CC(=O)O)NC(=O)[C@H](CO)NC(=O)[C@@H](NC(=O)[C@](C)(Cc1ccccc1)NC(=O)[C@@H](NC(=O)CNC(=O)[C@H](CCC(=O)O)NC(=O)C(C)(C)NC(=O)[C@@H](N)Cc1ccc(O)cc1)[C@@H](C)O)[C@@H](C)O)[C@@H](C)CC)[C@@H](C)CC)C(=O)N[C@@H](CCC(=O)O)C(=O)NCC(=O)NCC(=O)N[C@@H](CCCCNC(=O)COCCOCCNC(=O)COCCOCCNC(=O)CC[C@H](NC(=O)CCCCCCCCCCCCC(=O)O)C(=O)O)C(=O)N[C@@H](CO)C(=O)N[C@@H](CO)C(=O)NCC(=O)N[C@@H](C)C(=O)N1CCC[C@H]1C(=O)N1CCC[C@H]1C(=O)N1CCC[C@H]1C(=O)N[C@@H](CO)C(N)=O [Example 45]									> 966 nM	72.5%	91.3 ± 1.04%	> 9950 nM	> 9950 nM	109%	85.7 ± 8.37%	9.18 nM
